Reference: patent US20230265098A1, “ALKYNE QUINAZOLINE DERIVATIVES AS INHIBITORS OF ERBB2” (EnLiven Therapeutics, Inc., priority 2020, published 2023)

Assays:
[1] = tested on: A431 cells; test: Cell viability assay (CellTiter Glo); assay type: cell-based; conditions: Homo sapiens, A-431; 72 hours; 1500 cells per well, 384-well; DMEM + 10% FBS
Procedure: (§1) Cells were treated with compounds, and cell viability was measured as a metric of kinase inhibition.
(§2) The Ba/F3 cell line is IL-3-dependent mouse cell line derived from the C3H mouse strain. Ba/F3 cell lines were engineered to express human ERBB2 or EGFR kinases, rendering the cells IL-3 independent. The lines were generated via retroviral transduction utilizing a Moloney murine leukemia virus (MMLV) promoter, and constructs are stably integrated into the cell genome.
(§3) Similarly, Ba/F3 cell lines engineered to express EGFR, ERBB2, or ERBB2 mutants were grown, harvested, counted and seeded at 3000 cells per well in 96-well plates for the data sets shown in Tables B3-B4, and seeded at 300 cells per well in 384-well plates for the data set shown in Table B5. A subset of wells contained media only (low control, “LC”).
(§4) Table B2 provides the growth media and number of cells seeded per well for the each cell line.
(§5) Compounds were dissolved in DMSO and serially diluted. Serially-diluted compound or a DMSO only control (high control, “HC”) was added to the plated cells in each well. […] The final proportion of DMSO never exceeded 0.1%.
(§6) Plates were placed in a 37° C., 5% CO2 incubator for 72 hours. Plates were then removed from the incubator and equilibrated for 15 minutes at room temperature. 40 IA of CellTiter Glo reagent (Promega) was added to measure the relative level of metabolically active cells by quantifying intracellular ATP concentrations. Plates were incubated for 30 minutes at room temperature, and luminescence was measured. Percent viability was normalized to a vehicle control only using the following formula: % viability=100×(LumSample−LumLC) (LumHC−LumLC). Graphical curves were fitted using a nonlinear regression model with a sigmoidal dose response.

[2] = tested on: BT-474 cells; test: Cell viability assay (CellTiter Glo); assay type: cell-based; conditions: Homo sapiens, 72 hours, 2000 cells per well, 384-well, DMEM + 10% FBS
Procedure: as §1, §2, §3, §4, §5, §6

[3] = tested on: MDA-MB-175VII cells; test: Cell viability assay (CellTiter Glo); assay type: cell-based; conditions: Homo sapiens, 72 hours, 2000 cells per well, 384-well, RPMI + 10% FBS
Procedure: as §1, §2, §3, §4, §5, §6

[4] = target: T1, Ba/F3 ERBB2 A775_G776insYVMA (Homo sapiens, UniProt P04626, DUP772-775, cells depend on it); test: Cell viability assay (CellTiter Glo); assay type: cell-based, mouse; conditions: 72 hours; 3000 cells per well, 96-well plates (Tables B3-B4); read-out: Cell viability IC50, nM, Ba/F3 ERBB2 A775_G776insYVMA
T1 construct: Ba/F3 cell lines were engineered to express human ERBB2 or EGFR kinases, rendering the cells IL-3 independent
Procedure: as §1, §2, §3, §4, §5, §6

[5] = target: T2, Ba/F3 ERBB2 wt (Homo sapiens, UniProt P04626); test: Cell viability assay (CellTiter Glo); assay type: cell-based, mouse; conditions: 72 hours; 3000 cells per well, 96-well plates; read-out: Cell viability IC50, nM, Ba/F3 ERBB2 wt
T2 construct: Ba/F3 cell lines were engineered to express human ERBB2 or EGFR kinases, rendering the cells IL-3 independent
Procedure: as §1, §2, §3, §4, §5, §6

[6] = target: T3, Ba/F3 ERBB2-G776VC (Homo sapiens, UniProt P04626, DELINS776-776VC, cells depend on it); test: Cell viability assay (CellTiter Glo); assay type: cell-based, mouse; conditions: 72 hours; 3000 cells per well, 96-well plates; read-out: Cell viability IC50, nM, Ba/F3 ERBB2-G776VC
T3 construct: Ba/F3 cell lines were engineered to express human ERBB2 or EGFR kinases, rendering the cells IL-3 independent
Procedure: as §1, §2, §3, §4, §5, §6

[7] = target: T4, Ba/F3 ERBB2-P780_Y781insGSP (Homo sapiens, UniProt P04626, DUP778-780, cells depend on it); test: Cell viability assay (CellTiter Glo); assay type: cell-based, mouse; conditions: 72 hours; 3000 cells per well, 96-well plates; read-out: Cell viability IC50, nM, Ba/F3 ERBB2-P780_Y781insGSP
T4 construct: Ba/F3 cell lines were engineered to express human ERBB2 or EGFR kinases, rendering the cells IL-3 independent
Procedure: as §1, §2, §3, §4, §5
as §6, with “Percent viability was normalized to a vehicle control only using the following formula: % viability=100×(LumSample−LumLC) (LumHC−LumLC).” left out

[8] = target: T5, phosphorylated ERBB2 (pERBB2) (Homo sapiens, UniProt P04626); test: Detection of phosphorylated ERBB2 (pERBB2) by ELISA in BT-474 cells; assay type: cell-based; conditions: four hours incubation with compound, OD 450 nm
T5 construct: endogenous in cells; host or cells: BT-474
Procedure: BT-474 cells were seeded into a 96-well at 2.0*10^4 cells/100 μl/well.
Compounds were dissolved and serially diluted in DMSO. The compounds were then were added, mixed, and incubated for four hours at 37° C., 5% CO2. Compounds were added using four-fold dilutions at final concentrations ranging from 10 μM to 0.01 nM.
Following the four hour incubation with compounds, cell lysates were prepared. Plates were centrifuged for 5 min at 3000 RPM, and supernatant was removed from each well. Cells were washed 3 times by resuspension in 150 μl PBS, followed by centrifugation and removal of the supernatant, as above. […] Cells were incubated with lysis buffer for 1 hour at 4° C., and then stored at −80° C.
Enzyme-linked immunosorbent assays (ELISA) were performed to measure phosphorylated ERBB2 levels. […] The next day, plates were washed with PBS+0.05% Tween20 (PBST). 150 μl of 5% BSA blocking solution was added for 1 hour at room temperature, with shaking. Plates were washed with PBST. Cell lysates were thawed and 100 μl of lysate was added to the ELISA plate. The plates were incubated for 2 hours at room temperature, with shaking. […] Plates were incubated for 1 hour at room temperature, with shaking. Plates were then washed with PBST, and 100 μl TMB substrate solution (R&D Systems, cat #DY999) was added. Plate were incubated in the dark for 20 minutes at room temperature. 50 μl of Stop solution (R&D Systems, cat #DY994) (50 μl) was added to each well and mixed.
Optical density at 450 nm was read on an EnSpire plate reader (Perkin Elmer). The remaining kinase activity by calculated using the following formula: % Relative activity=100×(A450sample−A450LC)/(A450HC−A450LC). The low and high control values (“LC” and “HC”) were generated from lysate from wells without cells or with cells treated with 0.1% DMSO, respectively.

[9] = target: T6, Ba/F3 ERBB2-L755S (Homo sapiens, UniProt P04626, L755S, cells depend on it); test: Cell viability assay (CellTiter Glo); assay type: cell-based, mouse; conditions: 72 hours; 3000 cells per well, 96-well plates; read-out: Cell viability IC50, nM, Ba/F3 ERBB2-L755S
T6 construct: Ba/F3 cell lines were engineered to express human ERBB2 or EGFR kinases, rendering the cells IL-3 independent
Procedure: as §1, §2, §3, §4, §5, §6

[10] = target: T7, Ba/F3 ERBB2-L869R (Homo sapiens, UniProt P04626, L869R, cells depend on it); test: Cell viability assay (CellTiter Glo); assay type: cell-based, mouse; conditions: 72 hours; 3000 cells per well, 96-well plates; read-out: Cell viability IC50, nM, Ba/F3 ERBB2-L869R
T7 construct: Ba/F3 cell lines were engineered to express human ERBB2 or EGFR kinases, rendering the cells IL-3 independent
Procedure: as §1, §2, §3, §4, §5, §6

[11] = target: T8, Ba/F3 ERBB2-T798M (Homo sapiens, UniProt P04626, T798M, cells depend on it); test: Cell viability assay (CellTiter Glo); assay type: cell-based, mouse; conditions: 72 hours; 3000 cells per well, 96-well plates; read-out: Cell viability IC50, nM, Ba/F3 ERBB2-T798M
T8 construct: Ba/F3 cell lines were engineered to express human ERBB2 or EGFR kinases, rendering the cells IL-3 independent
Procedure: as §1, §2, §3, §4, §5, §6

[12] = target: T9, Ba/F3 ERBB2-V777L (Homo sapiens, UniProt P04626, V777L, cells depend on it); test: Cell viability assay (CellTiter Glo); assay type: cell-based, mouse; conditions: 72 hours; 3000 cells per well, 96-well plates; read-out: Cell viability IC50, nM, Ba/F3 ERBB2-V777L
T9 construct: Ba/F3 cell lines were engineered to express human ERBB2 or EGFR kinases, rendering the cells IL-3 independent
Procedure: as §1, §2, §3, §4, §5, §6

[13] = target: T10, Ba/F3 ERBB2-V777_G778insGC (Homo sapiens, UniProt P04626, INS778CG, cells depend on it); test: Cell viability assay (CellTiter Glo); assay type: cell-based, mouse; conditions: 72 hours; 3000 cells per well, 96-well plates; read-out: Cell viability IC50, nM, Ba/F3 ERBB2-V777_G778insGC
T10 construct: Ba/F3 cell lines were engineered to express human ERBB2 or EGFR kinases, rendering the cells IL-3 independent
Procedure: as §1, §2, §3, §4, §5, §6

[14] = target: T11, phosphorylated EGFR (pEGFR) (Homo sapiens, UniProt P00533); test: Detection of phosphorylated EGFR (pEGFR) in EGF-stimulated A431 cells (AlphaLISA); assay type: cell-based; conditions: A431 cells (10% FBS), 4 hours with compound, then EGF 30 ng/mL for 10 minutes
T11 construct: endogenous in cells; host or cells: A431
Procedure: Enzyme-linked immunosorbent assays (ELISA) were performed to measure phosphorylated EGFR levels using A431 cells (10% FBS). A431 (1.0*10^4 cells/40 μl/well) cells were seeded in 384 well. Compounds were dissolved in DMSO, serially diluted in DMSO and then were added, mixed, and incubated for 4 hours at 37° C., 5% CO2. Following the 4-hours incubation, cells were stimulated for 10 minutes with EGF (Invitrogen, cat #PHG0311) at a final concentration of 30 ng/mL in the incubator. The media was aspirated and cells were lysed in 10 μL lysis buffer with protease and phosphatase inhibitors (PerkinElmer, cat #ALSU-PEGFR-A50K). The plates were placed on a shaker for 5 minutes and then incubated for 30 min at 4° C. for complete lysis. The lysate was transferred to an Optiplate (Perkin Elmer, cat #6007290).
Acceptor mix (PerkinElmer, cat #ALSU-PEGFR-A50K) was prepared just before use and 5 μL was dispensed to all the wells, followed by a 1.5-2 h incubation at room temperature in dark. The donor mix (PerkinElmer, cat #ALSU-PEGFR-A50K) was prepared under low light conditions prior to use and […] of donor mix was added to all the wells under subdued lighting or green filters. The plates were placed on a shaker for 5 min, sealed, and incubated overnight at room temperature in dark. Plates were read on the Envision (PerkinElmer) using standard AlphaLISA settings.
The percentage of inhibition on EGFR phosphorylation was calculated following equation: % Inhibition=100×(LumHC−LumSample)/(LumHC−LumLC). The low and high controls (LC/HC) are generated from lysate from wells with cells treated with DMSO or […] Staurosporine (BioAustralis, cat #BIA-S1086), […]. IC50 values were calculated by fitting the Curve using XLfit (v5.3.1.3), equation 201: Y=Bottom+(Top−Bottom)/(1+10^((LogIC50−X)*HillSlope)).

T4 sequence (P04626 with tags, fused parts or gaps DUP778-780): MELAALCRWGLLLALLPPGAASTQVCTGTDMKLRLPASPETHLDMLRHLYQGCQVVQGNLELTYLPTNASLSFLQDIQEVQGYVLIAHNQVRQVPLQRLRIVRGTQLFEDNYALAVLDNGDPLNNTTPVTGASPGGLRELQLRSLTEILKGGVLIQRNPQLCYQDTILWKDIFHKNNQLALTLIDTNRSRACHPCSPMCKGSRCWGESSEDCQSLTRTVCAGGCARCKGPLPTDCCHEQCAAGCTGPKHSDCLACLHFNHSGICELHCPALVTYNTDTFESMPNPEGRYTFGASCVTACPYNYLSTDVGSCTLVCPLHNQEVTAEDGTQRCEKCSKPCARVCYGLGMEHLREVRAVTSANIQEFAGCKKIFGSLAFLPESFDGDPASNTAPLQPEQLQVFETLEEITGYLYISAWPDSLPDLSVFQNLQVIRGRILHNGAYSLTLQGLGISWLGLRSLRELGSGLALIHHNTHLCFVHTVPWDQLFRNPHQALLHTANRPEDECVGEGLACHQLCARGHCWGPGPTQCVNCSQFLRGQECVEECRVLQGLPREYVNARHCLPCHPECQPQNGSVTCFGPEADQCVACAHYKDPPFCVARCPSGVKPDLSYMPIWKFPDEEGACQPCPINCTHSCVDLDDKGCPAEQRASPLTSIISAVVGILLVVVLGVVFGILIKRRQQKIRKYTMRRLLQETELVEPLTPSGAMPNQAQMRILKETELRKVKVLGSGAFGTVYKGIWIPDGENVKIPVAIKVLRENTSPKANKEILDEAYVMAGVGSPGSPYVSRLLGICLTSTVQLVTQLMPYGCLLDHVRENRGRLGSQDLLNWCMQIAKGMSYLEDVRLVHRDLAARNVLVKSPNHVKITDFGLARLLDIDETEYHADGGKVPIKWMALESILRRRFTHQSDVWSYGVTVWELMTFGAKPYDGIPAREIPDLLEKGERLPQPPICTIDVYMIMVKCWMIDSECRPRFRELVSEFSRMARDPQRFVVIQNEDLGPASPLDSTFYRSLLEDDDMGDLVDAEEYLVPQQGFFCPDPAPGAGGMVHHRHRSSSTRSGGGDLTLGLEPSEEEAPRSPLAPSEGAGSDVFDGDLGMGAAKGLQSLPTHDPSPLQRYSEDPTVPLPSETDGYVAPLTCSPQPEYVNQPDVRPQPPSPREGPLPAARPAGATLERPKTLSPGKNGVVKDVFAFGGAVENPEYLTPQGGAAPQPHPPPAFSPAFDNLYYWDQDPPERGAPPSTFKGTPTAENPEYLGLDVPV
T6 sequence (P04626 whole entry L755S): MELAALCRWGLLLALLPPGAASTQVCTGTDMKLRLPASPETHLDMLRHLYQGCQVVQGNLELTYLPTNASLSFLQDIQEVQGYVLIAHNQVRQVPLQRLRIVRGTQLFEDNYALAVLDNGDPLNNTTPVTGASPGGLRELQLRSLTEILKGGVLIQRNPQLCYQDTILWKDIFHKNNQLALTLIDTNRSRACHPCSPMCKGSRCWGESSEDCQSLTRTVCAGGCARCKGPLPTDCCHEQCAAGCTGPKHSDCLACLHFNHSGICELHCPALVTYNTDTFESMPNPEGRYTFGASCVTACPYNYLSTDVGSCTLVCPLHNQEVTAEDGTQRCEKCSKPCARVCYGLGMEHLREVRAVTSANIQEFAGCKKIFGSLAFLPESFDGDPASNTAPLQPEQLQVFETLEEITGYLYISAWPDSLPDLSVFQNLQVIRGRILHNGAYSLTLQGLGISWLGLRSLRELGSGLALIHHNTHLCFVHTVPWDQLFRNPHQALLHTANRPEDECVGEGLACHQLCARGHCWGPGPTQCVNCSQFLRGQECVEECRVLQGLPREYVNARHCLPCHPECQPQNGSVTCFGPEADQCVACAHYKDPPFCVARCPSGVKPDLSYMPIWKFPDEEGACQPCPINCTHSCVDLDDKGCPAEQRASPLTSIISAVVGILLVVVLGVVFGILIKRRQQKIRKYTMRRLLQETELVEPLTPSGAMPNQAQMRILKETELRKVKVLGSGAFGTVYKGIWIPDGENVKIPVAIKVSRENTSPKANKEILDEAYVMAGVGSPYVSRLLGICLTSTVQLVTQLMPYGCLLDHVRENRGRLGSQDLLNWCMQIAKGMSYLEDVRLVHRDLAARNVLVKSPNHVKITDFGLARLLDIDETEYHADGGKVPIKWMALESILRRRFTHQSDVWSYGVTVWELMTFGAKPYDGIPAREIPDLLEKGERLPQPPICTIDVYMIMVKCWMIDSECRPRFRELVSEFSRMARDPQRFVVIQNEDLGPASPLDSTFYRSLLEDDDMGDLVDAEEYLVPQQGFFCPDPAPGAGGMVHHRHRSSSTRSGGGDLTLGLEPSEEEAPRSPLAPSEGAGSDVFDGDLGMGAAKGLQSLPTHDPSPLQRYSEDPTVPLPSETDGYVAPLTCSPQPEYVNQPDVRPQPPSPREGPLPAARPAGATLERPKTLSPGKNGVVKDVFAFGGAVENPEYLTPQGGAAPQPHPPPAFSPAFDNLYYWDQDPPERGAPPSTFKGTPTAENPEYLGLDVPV
T8 sequence (P04626 whole entry T798M): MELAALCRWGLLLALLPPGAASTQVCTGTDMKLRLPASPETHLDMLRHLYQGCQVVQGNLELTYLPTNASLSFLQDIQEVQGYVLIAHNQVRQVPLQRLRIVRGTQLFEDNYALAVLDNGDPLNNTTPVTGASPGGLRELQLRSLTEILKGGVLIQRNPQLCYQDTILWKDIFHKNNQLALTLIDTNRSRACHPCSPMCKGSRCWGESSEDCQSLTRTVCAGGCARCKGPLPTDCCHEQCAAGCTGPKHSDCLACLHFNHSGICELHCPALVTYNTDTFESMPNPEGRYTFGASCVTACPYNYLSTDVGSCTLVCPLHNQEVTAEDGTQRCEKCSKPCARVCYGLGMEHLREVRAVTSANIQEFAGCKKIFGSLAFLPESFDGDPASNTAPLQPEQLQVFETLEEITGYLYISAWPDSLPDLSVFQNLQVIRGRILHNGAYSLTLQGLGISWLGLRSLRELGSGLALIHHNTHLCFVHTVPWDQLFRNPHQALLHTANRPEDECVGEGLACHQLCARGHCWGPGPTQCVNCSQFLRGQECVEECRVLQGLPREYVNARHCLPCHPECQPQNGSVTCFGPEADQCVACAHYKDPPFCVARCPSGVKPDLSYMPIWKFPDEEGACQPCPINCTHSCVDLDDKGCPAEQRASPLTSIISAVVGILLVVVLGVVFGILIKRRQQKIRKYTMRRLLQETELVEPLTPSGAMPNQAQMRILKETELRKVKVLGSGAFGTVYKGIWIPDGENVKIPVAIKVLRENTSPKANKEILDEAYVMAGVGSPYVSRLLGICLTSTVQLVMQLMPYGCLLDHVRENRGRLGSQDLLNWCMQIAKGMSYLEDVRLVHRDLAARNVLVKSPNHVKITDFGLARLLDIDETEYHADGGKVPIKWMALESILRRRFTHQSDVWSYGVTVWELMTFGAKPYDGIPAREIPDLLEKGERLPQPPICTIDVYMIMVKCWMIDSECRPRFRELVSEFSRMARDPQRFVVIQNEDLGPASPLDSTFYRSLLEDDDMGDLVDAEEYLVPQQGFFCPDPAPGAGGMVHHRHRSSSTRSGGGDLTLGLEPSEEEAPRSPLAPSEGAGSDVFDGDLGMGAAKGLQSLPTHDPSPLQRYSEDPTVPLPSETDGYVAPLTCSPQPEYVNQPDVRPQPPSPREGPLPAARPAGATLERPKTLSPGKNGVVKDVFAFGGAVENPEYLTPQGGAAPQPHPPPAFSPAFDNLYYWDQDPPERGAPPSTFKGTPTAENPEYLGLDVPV
T2 sequence (P04626 whole entry, change not shown): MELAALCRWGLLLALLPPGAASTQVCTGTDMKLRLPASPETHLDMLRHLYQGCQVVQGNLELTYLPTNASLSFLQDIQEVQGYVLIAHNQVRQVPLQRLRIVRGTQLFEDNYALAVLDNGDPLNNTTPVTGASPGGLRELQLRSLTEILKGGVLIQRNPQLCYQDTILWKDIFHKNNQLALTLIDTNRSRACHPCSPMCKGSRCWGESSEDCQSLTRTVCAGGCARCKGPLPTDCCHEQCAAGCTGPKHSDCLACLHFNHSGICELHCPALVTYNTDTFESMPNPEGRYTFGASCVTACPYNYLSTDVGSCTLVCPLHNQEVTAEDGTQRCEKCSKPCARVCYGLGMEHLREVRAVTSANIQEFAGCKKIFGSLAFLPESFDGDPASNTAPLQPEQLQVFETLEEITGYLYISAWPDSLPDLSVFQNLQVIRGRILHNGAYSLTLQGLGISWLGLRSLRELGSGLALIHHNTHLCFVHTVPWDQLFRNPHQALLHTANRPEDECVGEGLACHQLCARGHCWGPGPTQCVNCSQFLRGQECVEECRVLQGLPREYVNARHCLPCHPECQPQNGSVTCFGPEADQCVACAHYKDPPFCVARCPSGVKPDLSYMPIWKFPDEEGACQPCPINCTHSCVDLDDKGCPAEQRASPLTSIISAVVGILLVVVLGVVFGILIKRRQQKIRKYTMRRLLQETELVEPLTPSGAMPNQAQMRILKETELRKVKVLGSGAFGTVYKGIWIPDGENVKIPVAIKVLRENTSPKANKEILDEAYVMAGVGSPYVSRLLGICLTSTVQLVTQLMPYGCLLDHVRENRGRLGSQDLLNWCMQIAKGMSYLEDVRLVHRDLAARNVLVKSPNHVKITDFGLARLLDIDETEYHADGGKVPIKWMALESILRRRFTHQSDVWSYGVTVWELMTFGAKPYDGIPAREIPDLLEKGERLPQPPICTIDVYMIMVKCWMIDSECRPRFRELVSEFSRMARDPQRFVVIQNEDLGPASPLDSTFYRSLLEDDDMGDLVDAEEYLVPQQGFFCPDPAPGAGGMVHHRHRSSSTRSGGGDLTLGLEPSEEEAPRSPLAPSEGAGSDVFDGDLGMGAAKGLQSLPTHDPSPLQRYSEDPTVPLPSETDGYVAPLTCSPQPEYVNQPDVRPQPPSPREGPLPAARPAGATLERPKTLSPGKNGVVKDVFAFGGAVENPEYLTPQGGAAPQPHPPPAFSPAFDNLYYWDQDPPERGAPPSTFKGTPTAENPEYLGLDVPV

| Compound | IC50 [1] | IC50 [2] | IC50 [3] | GI50 [4] | GI50 [5] | GI50 [6] | GI50 [7] | IC50 [8] | GI50 [9] | GI50 [10] | GI50 [11] | GI50 [12] | GI50 [13] | IC50 [14] |
| --- | --- | --- | --- | --- | --- | --- | --- | --- | --- | --- | --- | --- | --- | --- |
| CC#CC(=O)Nc1ccc2ncnc(Nc3ccc(Oc4ccn(C)c(=O)c4)c(C)c3)c2c1 [Compound 3, N-[4-([3-methyl-4-[(1-methyl-2-oxopyridin-4-yl)oxy]phenyl]amino)quinazolin-6-yl]but-2-ynamide] | 4440 nM | 13.5 nM | 43.3 nM | 8.1 nM | 18 nM | 30 nM | 7.1 nM | 152 nM | – | – | – | – | – | – |
| CC#CC(=O)Nc1ccc2ncnc(Nc3ccc(Oc4ccc(C)nc4)c(C)c3)c2c1 [Compound 5, N-[4-([3-methyl-4-[(6-methylpyridin-3-yl)oxy]phenyl]amino)quinazolin-6-yl]but-2-ynamide] | – | – | – | 8.3 nM | 2.3 nM | 3.8 nM | 1.1 nM | – | 6 nM | 2.3 nM | 44 nM | 1.1 nM | 1.3 nM | – |
| CC#CC(=O)N(C)c1ccc2ncnc(Nc3ccc(Oc4ccn5ncnc5c4)cc3)c2c1 [Compound 8, N-methyl-N-[4-[(4-[[1,2,4]triazolo[1,5-a]pyridin-7-yloxy]phenyl)amino]quinazolin-6-yl]but-2-ynamide] | > 10000 nM | 16.7 nM | 562 nM | 276 nM | 31 nM | 117 nM | 20.4 nM | 72.9 nM | 159 nM | 52 nM | 1500 nM | 11 nM | 34 nM | – |
| CC#CC(=O)Nc1ccc2ncnc(Nc3ccc(Oc4ccc(C)nc4)cc3)c2c1 [Compound 9, N-[4-([4-[(6-methylpyridin-3-yl)oxy]phenyl]amino)quinazolin-6-yl]but-2-ynamide] | 454 nM | 12.3 nM | 142 nM | 20 nM | 5.7 nM | 21 nM | 5.5 nM | 43.9 nM | 35 nM | 15 nM | 239 nM | 4.1 nM | 2.4 nM | – |
| CC#CC(=O)Nc1ccc2ncnc(Nc3ccc(Oc4cnc(C)cn4)cc3)c2c1 [Compound 10, N-[4-([4-[(5-methylpyrazin-2-yl)oxy]phenyl]amino)quinazolin-6-yl]but-2-ynamide] | 1080 nM | 35.5 nM | 232 nM | 49 nM | 13.1 nM | 81 nM | 16 nM | 74.9 nM | 81 nM | 15 nM | 220 nM | 7.3 nM | 9.3 nM | – |
| Cc1cc(Nc2ncnc3cc(OCCO)c(NC(=O)C#CC4CC4)cc23)ccc1Oc1ccn2ncnc2c1 [Compound 168, 3-cyclopropyl-N-[7-(2-hydroxyethoxy)-4-[(3-methyl-4-[[1,2,4]triazolo[1,5-a]pyridin-7-yloxy]phenyl)amino]quinazolin-6-yl]prop-2-ynamide] | – | 2.17 nM | – | – | – | – | – | 17 nM | – | – | – | – | – | 70.9 nM |
